PubChem BioAssay (NCI)
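Briefly, cells in 96-well plates were exposed to five compound concentrations for 48 h, and endpoints were estimated by linear interpolation. TGI: concentration producing complete growth inhibition.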

Experiments:
Test in all cases: NCI-60 cell line screen, 48 h
HOP-62 NSCLC = system: HOP-62 NSCLC
COLO 205 colon = system: COLO 205 colon
SK-MEL-5 melanoma = system: SK-MEL-5 melanoma
SK-MEL-2 melanoma = system: SK-MEL-2 melanoma
RXF 393 renal = system: RXF 393 renal
XF 498 CNS = system: XF 498 CNS
HT29 colon = system: HT29 colon
OVCAR-8 ovarian = system: OVCAR-8 ovarian
NCI-H460 lung = system: NCI-H460 lung
OVCAR-4 ovarian = system: OVCAR-4 ovarian
NCI-H23 lung = system: NCI-H23 lung
DMS 273 small cell lung = system: DMS 273 small cell lung
SF-268 CNS = system: SF-268 CNS
KM20L2 colon = system: KM20L2 colon
M19-MEL melanoma = system: M19-MEL melanoma
MDA-N = system: MDA-N

Compound | TGI (HOP-62 NSCLC) [µM] | TGI (COLO 205 colon) [µM] | TGI (SK-MEL-5 melanoma) [µM] | TGI (SK-MEL-2 melanoma) [µM] | TGI (RXF 393 renal) [µM] | TGI (XF 498 CNS) [µM] | TGI (HT29 colon) [µM] | TGI (OVCAR-8 ovarian) [µM] | TGI (NCI-H460 lung) [µM] | TGI (OVCAR-4 ovarian) [µM] | TGI (NCI-H23 lung) [µM] | TGI (DMS 273 small cell lung) [µM] | TGI (SF-268 CNS) [µM] | TGI (KM20L2 colon) [µM] | TGI (M19-MEL melanoma) [µM] | TGI (MDA-N) [µM]
CCc1cccc(C(C)C)c1NC(=O)/C(=N\NC(N)=O)C(C(=O)OC)c1cnc2ccccc2n1 (stereo not drawn) | > 100 | 49.6 | 35.1 | > 100 | > 100 | > 100 | > 100 | > 100 | 80.7 | > 100 | 57.5 | > 100 | > 100 | > 100 | 32.4 | 
CCOC(=O)C(C)NC(=O)NC12CC3CC(CC(F)(C3)C1)C2 (stereo not drawn) | > 100 | > 100 | > 100 | > 100 | 86.6 | 89.4 | > 100 | > 100 | > 100 |  | > 100 | > 100 |  | > 100 | > 100 | 
CC(=O)NC(CCCCNCc1ccccc1)C(=O)NCc1ccccc1 (stereo not drawn) | > 100 | > 100 | > 100 | > 100 | > 100 | > 100 | > 100 | > 100 | > 100 | > 100 | > 100 | > 100 | > 100 | > 100 | > 100 | 
COC(=O)C(Cc1nc2ccc(Cl)cc2[nH]c1=O)C(=O)C(=O)Nc1cc(C)ccc1C (stereo not drawn) | > 100 | > 100 | > 100 | > 100 | > 100 | > 100 | > 100 | > 100 | > 100 | > 100 | > 100 | > 100 | > 100 | > 100 | > 100 | 
CN(C)CC1(C)CC/C(=C\c2ccc(Cl)cc2)C1=O (stereo not drawn) | > 100 | 31.7 | > 100 | > 100 | 82.1 | > 100 | > 100 | > 100 | 54.6 | > 100 | > 100 | 50.7 | > 100 | 35.7 | > 100 | 
Cc1ccc(NC(=O)C2C3C=CC(O3)C2C(=O)O)cc1 (stereo not drawn) | > 100 | > 100 | > 100 | > 100 | 80.1 | > 100 | 39.8 | > 100 | > 100 | > 100 | > 100 | > 100 | > 100 | > 100 | > 100 | 
O=C1/C(=C/c2ccccc2Cl)COc2ccc(Br)cc21 | > 100 | > 100 |  | > 100 | > 100 | > 100 | > 100 | > 100 | > 100 |  | > 100 | > 100 | > 100 | > 100 | > 100 | 
S=C(NCCc1ccccn1)N/N=C(\c1ccccc1)c1ccccn1 | > 50.1 | > 100 | 40.2 | > 100 | 52.8 |  | 21.7 | 17.4 | > 100 | 54.7 | > 27.3 |  | > 76.1 |  |  | > 100
Cc1cc(C)n(-c2nc(-n3nc(C)cc3C)nc(-n3nc(C)cc3C)n2)n1 | > 100 | > 100 | > 100 | > 100 | > 100 |  | > 100 | > 100 | > 100 | > 100 | > 100 |  | > 100 |  |  | > 100
CCOC(=O)C1=C(C(=O)OCC)SC2(S1)C(C(=O)OCC)=C(C(=O)OCC)Sc1c2ssc1=O | 3.21 | 5.15 | 5.29 | 5.5 | 2.47 |  | 3.75 | 3.31 | 21.9 | 2.68 | 4.02 |  | 4.19 |  |  | 4.36
CC(=O)NC(CCCNC(=O)N(C)N=O)C(=O)NCc1ccccc1 (stereo not drawn) | > 100 | > 100 | > 100 | > 100 | > 100 | > 100 | > 100 | > 100 | > 100 | > 100 | > 100 | > 100 | > 100 | > 100 | > 100 | 
Cc1cc(N(CCC#N)CCC#N)ccc1/C=C1N=C(/C=C\c2ccccc2)N(NC(=O)CC(=O)Nc2ccccc2Cl)C\1=O | > 100 | > 100 | > 100 | > 100 |  |  | > 100 | > 100 | > 100 | > 100 | > 100 |  | > 100 | > 100 | > 100 | 
CCC1C(NC(=O)OC)C(=O)N1[C@@H](C)c1ccccc1 (stereo partly drawn) | > 100 | > 100 | > 100 | > 100 | > 100 |  | > 100 | > 100 | > 100 | > 100 | > 100 |  | > 100 |  |  | > 100
O=C1N[C@H]2C(=O)c3c(Br)sc(Br)c3[C@H]2O1 | 44.5 | 8.17 | 27.7 | 31.9 | 10.4 |  | 6.59 | 13 | 35 | 31.3 | 17.7 |  | 14.2 |  |  | 20.1
